Assay results taken from paper PMC9564337, “Development of a Neurotensin-Derived ^68Ga-Labeled PET Ligand with High In Vivo Stability for Imaging of NTS1 Receptor-Expressing Tumors” (Cancers, 2022).
Marks after values point to notes of the source that are not given here. Blank lines part the entries; values can stand above or below the molecule they belong to.

What was measured:
[1] = physchem; assay type: physicochemical; details: pH 7.4
Description: The distribution coefficients logD7.4 of the radiotracers [^68Ga]21, [^68Ga]33, [^68Ga]37 and [^68Ga]56 were determined by adding a solution of the tracer in PBS (100 μL, ca. 0.20–0.34 MBq) to a mixture of n-octanol (500 μL) and PBS (pH 7.4) (400 μL) in a 2-mL HPLC vial (Agilent, article number 5182-0714) with a screw cap equipped with a septum (Agilent, article number 5182-0717). After vortexing the mixture for 2 min, two 100 μL aliquots of the upper phase (n-octanol) were taken. To obtain a sample of the lower phase (PBS), the HPLC vial was held upside down and approximately 100–150 µL of the aqueous phase were removed using a syringe equipped with a canula and collected in a reaction vessel. Two 10 µL aliquots of the aqueous phase were subjected to measurement. The activity of the aliquots was measured with a Canberra Genie 2000 system (Canberra, Rüsselsheim, Germany) using the Gamma Acquisition & Analysis Software Genie 2000 3.4.1. Experiments were performed in triplicate. The decay-corrected counts per minute (cpm) values were averaged (n = 3) and transformed to a distribution coefficient logD7.4 according to logD7.4 = log(Aoctanol/Aaqueous), where Aoctanol is the mean of the decay-corrected cpm values obtained for samples of the n-octanol phase, and Aaqueous is the mean of the decay-corrected cpm values obtained for samples of the aqueous phase.

[2] = tested on: HT-29 tumor-bearing nude mice; test: in vivo; details: mouse
Description: (§1) 8–12 weeks old female NMRI nude (nu/nu) mice (body weight 22–32 g) (Charles River, Sulzfeld, Germany) were kept under specified pathogen free (SPF) conditions at 23 °C, 55% relative humidity and a 12 h light/dark cycle in the central animal facility of the University of Regensburg using type III cages from Tecniplast (Hohenpeißenberg, Germany). The animals took food (Ssniff, Soest, Germay) and autoclaved tap water ad libitum. For tumor cell implantation, the culture medium of HT-29 cells was removed, the cells were detached from the culture flask by incubation for 2 min in trypsin-EDTA and the suspension was centrifuged (5 min, rt, 164 g). The supernatant was removed, and the cell pellet was washed twice with sterile PBS or serum-free medium (5–6 mL). The cells were resuspended in sterile PBS to a final density of 1 × 10^7 cells/mL. Mice were injected subcutaneously into the right flank with the HT-29 cell suspension (100 µL). After 2–4 weeks, when the tumors had reached a size of 50–500 mm^3, animals were used for biodistribution and PET/computed tomography (CT) imaging studies (note: for PET/CT studies, the tumor size was at least 200 mm^3).
(§2) Aliquots of the tracer stock were diluted in PBS to give a volume of 200 µL. 80–100 µL (0.9–5.9 MBq) of this solution were injected into anesthetized HT-29 tumor-bearing nude mice via the tail vein. Animals were kept on a heating plate (set to 40 °C) or a pre-heated (ca. 45 °C) gel cushion and were killed by cardiac puncture 10 min, 25 min or 45 min p.i. immediately followed by taking blood, urine and tissue (i.e., tumor, kidney, liver, gall bladder, spleen, small intestine, heart, lung, brain, pancreas, femur and muscle) samples. Radioactivity measurement of the samples was performed with the Canberra Genie 2000 system described for the determination of the distribution coefficient logD7.4. Decay-corrected measured activities (cpm) were converted into activities (MBq) on the basis of an activity measurement with a ^68Ge-calibration standard source (Eckert&Ziegler, Berlin, Germany). Sample activities were converted to percentage of injected dose per gram tissue (%ID/g). Blocking experiments were performed by co-injection of the tracer with NTS1R ligand 48 (ca. 700 nmol per mouse). Mice were killed 45 min p.i. and analyzed as described above. The animals used for the 45-min biodistribution experiments were the same as used for the PET/CT imaging studies.

[3] = in vivo; details: female, NMRI nude (nu/nu), mouse, total radioactivity; for tissue to tissue ratio at 0.75 h: iv, tumor-to-muscle ratio
Description: as §1, §2

[4] = cited from earlier work
[5] = Uptake (%ID/g) gall bladder (bile)
[6] = female, NMRI nude (nu/nu), 0.75 h

logD [1]: -2.48
tumor-to-muscle ratio [2]: 4.1
tissue to tissue ratio at 0.75 h [3]: 4.1 ± 1.7
tissue uptake at 0.75 h ([3]; Uptake (%ID/g) blood): 1.3 ± 0.29 %ID/g
tissue uptake at 0.75 h [3, 5]: 2 ± 0.14 %ID/g
tissue uptake at 0.75 h ([3]; Uptake (%ID/g) kidney): 10 ± 0.96 %ID/g
tissue uptake at 0.75 h ([3]; Uptake (%ID/g) liver): 16 ± 2.2 %ID/g
tissue uptake at 0.75 h ([3]; Uptake (%ID/g) muscle): 0.41 ± 0.17 %ID/g
tissue uptake at 0.75 h ([3]; Uptake (%ID/g) tumor): 1.5 ± 0.22 %ID/g
SMILES: CN[C@@H](CCCNC(N)=NC(=O)NCCOCCOCCNC(=O)[C@@H](Cc1ccc(-c2ccc(F)cc2)cc1)NC(=O)CCCCCNC(=O)CN1CCN(CC(=O)O)CCN(CC(=O)O)CCN(CC(=O)O)CC1)C(=O)N[C@@H](CCCNC(=N)N)C(=O)N1CCC[C@H]1C(=O)N[C@@H](Cc1ccc(O)cc1)C(=O)N[C@H](C(=O)N[C@@H](CC(C)C)C(=O)O)C(C)(C)C [[^68Ga]33, metal not drawn]

SMILES: CN[C@@H](CCCNC(N)=NC(=O)NCCCCNC(=O)CN1CCN(CC(=O)O)CCN(CC(=O)O)CCN(CC(=O)O)CC1)C(=O)N[C@@H](CCCNC(=N)N)C(=O)N1CCC[C@H]1C(=O)N[C@@H](Cc1ccc(O)cc1)C(=O)N[C@H](C(=O)N[C@@H](CC(C)C)C(=O)O)C(C)(C)C [[^68Ga]21, metal not drawn]
logD [1]: -3.87
tumor-to-muscle ratio [2]: 9.5
tissue to tissue ratio at 0.75 h [3]: 9.5 ± 3.7
tissue uptake at 0.75 h ([3]; Uptake (%ID/g) blood): 0.63 ± 0.2 %ID/g
tissue uptake at 0.75 h [3, 5]: 0.55 ± 0.29 %ID/g
tissue uptake at 0.75 h ([3]; Uptake (%ID/g) kidney): 6 ± 1.9 %ID/g
tissue uptake at 0.75 h ([3]; Uptake (%ID/g) liver): 0.59 ± 0.17 %ID/g
tissue uptake at 0.75 h ([3]; Uptake (%ID/g) muscle): 0.21 ± 0.062 %ID/g
tissue uptake at 0.75 h ([3]; Uptake (%ID/g) tumor): 1.9 ± 0.7 %ID/g

logD [1]: -3.06
Uptake (%ID/g) blood [2, 6]: 1.4 ± 1.0 %ID/g
Uptake (%ID/g) brain [2, 6]: 0.10 ± 0.074 %ID/g
Uptake (%ID/g) femur [2, 6]: 0.65 ± 0.43 %ID/g
Uptake (%ID/g) heart [2, 6]: 0.60 ± 0.44 %ID/g
Uptake (%ID/g) kidney [2, 6]: 53 ± 27 %ID/g
Uptake (%ID/g) muscle [2, 6]: 0.68 ± 0.61 %ID/g
Uptake (%ID/g) pancreas [2, 6]: 0.51 ± 0.37 %ID/g
tissue uptake at 10 min ([3]; Uptake (%ID/g) blood): 3.1 ± 0.34 %ID/g
tissue uptake at 25 min ([3]; Uptake (%ID/g) blood): 2.9 ± 1.3 %ID/g
tissue uptake at 0.75 h ([3]; Uptake (%ID/g) blood): 1.3 ± 0.33 %ID/g
tissue uptake at 10 min ([3]; Uptake (%ID/g) brain): 0.079 ± 0.017 %ID/g
tissue uptake at 25 min ([3]; Uptake (%ID/g) brain): 0.13 ± 0.11 %ID/g
tissue uptake at 0.75 h ([3]; Uptake (%ID/g) brain): 0.061 ± 0.049 %ID/g
tissue uptake at 10 min ([3]; Uptake (%ID/g) femur): 0.95 ± 0.25 %ID/g
tissue uptake at 25 min ([3]; Uptake (%ID/g) femur): 0.78 ± 0.27 %ID/g
tissue uptake at 0.75 h ([3]; Uptake (%ID/g) femur): 0.73 ± 0.29 %ID/g
tissue uptake at 10 min [3, 5]: 1.1 ± 0.71 %ID/g
tissue uptake at 25 min [3, 5]: 1.9 ± 0.79 %ID/g
tissue uptake at 10 min ([3]; Uptake (%ID/g) heart): 1.2 ± 0.1 %ID/g
tissue uptake at 25 min ([3]; Uptake (%ID/g) heart): 1.3 ± 0.49 %ID/g
tissue uptake at 0.75 h ([3]; Uptake (%ID/g) heart): 0.72 ± 0.36 %ID/g
tissue uptake at 10 min ([3]; Uptake (%ID/g) intestine): 1.8 ± 0.22 %ID/g
tissue uptake at 25 min ([3]; Uptake (%ID/g) intestine): 2.4 ± 0.68 %ID/g
tissue uptake at 10 min ([3]; Uptake (%ID/g) kidney): 47 ± 3.4 %ID/g
tissue uptake at 25 min ([3]; Uptake (%ID/g) kidney): 47 ± 7 %ID/g
tissue uptake at 0.75 h ([3]; Uptake (%ID/g) kidney): 55 ± 28 %ID/g
tissue uptake at 10 min ([3]; Uptake (%ID/g) liver): 7.2 ± 0.83 %ID/g
tissue uptake at 25 min ([3]; Uptake (%ID/g) liver): 5.7 ± 1.6 %ID/g
tissue uptake at 10 min ([3]; Uptake (%ID/g) lung): 2.4 ± 0.3 %ID/g
tissue uptake at 25 min ([3]; Uptake (%ID/g) lung): 2.8 ± 1.5 %ID/g
tissue uptake at 0.75 h ([3]; Uptake (%ID/g) lung): 1.2 ± 0.34 %ID/g
tissue uptake at 10 min ([3]; Uptake (%ID/g) muscle): 1.1 ± 0.18 %ID/g
tissue uptake at 25 min ([3]; Uptake (%ID/g) muscle): 0.57 ± 0.23 %ID/g
tissue uptake at 0.75 h ([3]; Uptake (%ID/g) muscle): 0.55 ± 0.23 %ID/g
tissue uptake at 10 min ([3]; Uptake (%ID/g) pancreas): 1.3 ± 0.83 %ID/g
tissue uptake at 25 min ([3]; Uptake (%ID/g) pancreas): 1.1 ± 1.1 %ID/g
tissue uptake at 0.75 h ([3]; Uptake (%ID/g) pancreas): 0.9 ± 0.57 %ID/g
tissue uptake at 10 min ([3]; Uptake (%ID/g) spleen): 2.5 ± 0.25 %ID/g
tissue uptake at 25 min ([3]; Uptake (%ID/g) spleen): 2.6 ± 0.6 %ID/g
tissue uptake at 10 min ([3]; Uptake (%ID/g) tumor): 3.6 ± 0.2 %ID/g
tissue uptake at 25 min ([3]; Uptake (%ID/g) tumor): 7.3 ± 1.8 %ID/g
SMILES: CC[C@H](C)[C@H](NC(=O)[C@@H](NC(=O)[C@@H]1CCCN1C(=O)[C@H](CCCNC(=N)N)NC(=O)[C@H](CCCNC(N)=NC(=O)NCCCCNC(=O)CN1CCN(CC(=O)O)CCN(CC(=O)O)CCN(CC(=O)O)CC1)NC)C(C)(C)c1ccc(O)cc1)C(=O)N[C@@H](CC(C)C)C(=O)O [[^68Ga]56, metal not drawn]

logD [1]: -2.59
tumor-to-muscle ratio [2]: 3.4
tissue to tissue ratio at 0.75 h [3]: 3.4 ± 0.71
tissue uptake at 0.75 h [3, 5]: 1.9 ± 0.34 %ID/g
tissue uptake at 0.75 h ([3]; Uptake (%ID/g) kidney): 7.6 ± 0.39 %ID/g
tissue uptake at 0.75 h ([3]; Uptake (%ID/g) liver): 4.1 ± 0.79 %ID/g
tissue uptake at 0.75 h ([3]; Uptake (%ID/g) muscle): 0.5 ± 0.18 %ID/g
tissue uptake at 0.75 h ([3]; Uptake (%ID/g) tumor): 1.6 ± 0.19 %ID/g
SMILES: CN[C@@H](CCCNC(N)=NC(=O)NCCOCCOCCNC(=O)[C@@H](Cc1ccc(-c2ccc(F)cc2)cc1)NC(=O)CN1CCN(CC(=O)O)CCN(CC(=O)O)CCN(CC(=O)O)CC1)C(=O)N[C@@H](CCCNC(=N)N)C(=O)N1CCC[C@H]1C(=O)N[C@@H](Cc1ccc(O)cc1)C(=O)N[C@H](C(=O)N[C@@H](CC(C)C)C(=O)O)C(C)(C)C [[^68Ga]37, metal not drawn]

SMILES: CC[C@H](C)[C@H](NC(=O)[C@H](Cc1ccc(O)cc1)NC(=O)[C@@H]1CCCN1C(=O)[C@H](CCCNC(=N)N)NC(=O)[C@@H](N)CCCNC(=N)N)C(=O)N[C@@H](CC(C)C)C(=O)O [Compound 1, Arg^8-Arg^9-Pro^10-Tyr^11-Ile^12-Leu^13]
plasma half-life [4]: only a few minutes
% Intact Peptide in Plasma after 10 min ([4]; human plasma, 37 °C, 10 min, ref Schindler et al. [40]): 23 ^d %
% Intact Peptide in Plasma after 1 h ([4]; human plasma, 37 °C, 1 h, ref Schindler et al. [40]): <1 ^d %
% Intact Peptide in Plasma after 24 h ([4]; human plasma, 37 °C, 24 h, ref Schindler et al. [40]): <1 ^d %
% Intact Peptide in Plasma after 48 h ([4]; human plasma, 37 °C, 48 h, ref Schindler et al. [40]): <1 ^d %
